Results as given in patent US12077503B2, “Substituted cyclic amides and their use as herbicides” (FMC CORPORATION, priority 2015, dated 2024).

Columns and labels:
Format in all cases: in vivo
corn (Zea mays) = experiment: Test A postemergence
Excerpt: (§1) Seeds of plant species selected from barnyardgrass (Echinochloa crus-galli), Kochia (Kochia scoparia), ragweed (common ragweed, Ambrosia elatior), ryegrass, Italian (Italian ryegrass, Lolium multiflorum), crabgrass, large (Digitaria sanguinalis), giant foxtail (Setaria faberii), green foxtail (Setaria viridis), morningglory (Ipomoea spp.), pigweed (Amaranthus retroflexus), velvetleaf (Abutilon theophrasti), wheat (Triticum aestivum), and corn (Zea mays) were planted into a blend of loam soil and sand and treated preemergence with a directed soil spray using test chemicals formulated in anon-phytotoxic solvent mixture which included a surfactant.
(§2) At the same time, plants selected from these crop and weed species and also blackgrass (Alopecurus myosuroides), and Galium (catchweed bedstraw, Galium aparine) were planted in pots containing the same blend of loam soil and sand and treated with postemergence applications of test chemicals formulated in the same manner. Plants ranged in height from 2 to 10 cm and were in the one- to two-leaf stage for the postemergence treatment. Treated plants and untreated controls were maintained in a greenhouse for approximately 10 d, after which time all treated plants were compared to untreated controls and visually evaluated for injury. Plant response ratings, summarized in Table A, are based on a 0 to 100 scale where 0 is no effect and 100 is complete control. A dash (-) response means no test result.

[1] = test system: pigweed (Amaranthus retroflexus); experiment: Test A postemergence
Excerpt: as §1, §2

[2] = test system: ryegrass, Italian (Italian ryegrass, Lolium multiflorum); experiment: Test A postemergence
Excerpt: as §1, §2

[3] = test system: blackgrass (Alopecurus myosuroides); experiment: Test A postemergence
Excerpt: as §1, §2

Kochia (Kochia scoparia) [4] = experiment: Test A postemergence
Excerpt: as §1, §2

[5] = test system: barnyardgrass (Echinochloa crus-galli); experiment: Test A postemergence
Excerpt: as §1, §2

[6] = test system: giant foxtail (Setaria faberii); experiment: Test A postemergence
Excerpt: as §1, §2

[7] = test system: ragweed (common ragweed, Ambrosia elatior); experiment: Test A postemergence
Excerpt: as §1, §2

[8] = test system: wheat (Triticum aestivum); experiment: Test A postemergence
Excerpt: as §1, §2

[9] = test system: Galium (catchweed bedstraw, Galium aparine); experiment: Test A postemergence
Excerpt: as §1, §2

[10] = test system: pigweed (Amaranthus retroflexus); experiment: Test A preemergence; conditions: Preemergence; for Plant response rating, Pigweed: 125 g ai/ha, visual injury after approximately 10 d, 0 to 100 scale where 0 is no effect and 100 is complete control; for Pigweed plant response rating (0 to 100 scale, 0 is no effect, 100 is complete control): 500 g ai/ha, visual injury approx. 10 d
Excerpt: as §1, §2

[11] = test system: ryegrass, Italian (Italian ryegrass, Lolium multiflorum); experiment: Test A preemergence; conditions: Preemergence; for Plant response rating, Ryegrass, Italian: 125 g ai/ha, visual injury after approximately 10 d, 0 to 100 scale where 0 is no effect and 100 is complete control; for Ryegrass, Italian plant response rating (0 to 100 scale, 0 is no effect, 100 is complete control): 500 g ai/ha, visual injury approx. 10 d
Excerpt: as §1, §2

Kochia (Kochia scoparia) [12] = experiment: Test A preemergence; conditions: Preemergence; for Plant response rating, Kochia: 125 g ai/ha, visual injury after approximately 10 d, 0 to 100 scale where 0 is no effect and 100 is complete control; for Kochia plant response rating (0 to 100 scale, 0 is no effect, 100 is complete control): 500 g ai/ha, visual injury approx. 10 d
Excerpt: as §1, §2

[13] = test system: barnyardgrass (Echinochloa crus-galli); experiment: Test A preemergence; conditions: Preemergence; for Plant response rating, Barnyardgrass: 125 g ai/ha, visual injury after approximately 10 d, 0 to 100 scale where 0 is no effect and 100 is complete control; for Barnyardgrass plant response rating (0 to 100 scale, 0 is no effect, 100 is complete control): 500 g ai/ha, visual injury approx. 10 d
Excerpt: as §1, §2

[14] = test system: giant foxtail (Setaria faberii); experiment: Test A preemergence; conditions: Preemergence; for Plant response rating, Foxtail, Giant: 125 g ai/ha, visual injury after approximately 10 d, 0 to 100 scale where 0 is no effect and 100 is complete control; for Foxtail, Giant plant response rating (0 to 100 scale, 0 is no effect, 100 is complete control): 500 g ai/ha, visual injury approx. 10 d
Excerpt: as §1, §2

[15] = test system: ragweed (common ragweed, Ambrosia elatior); experiment: Test A preemergence; conditions: Preemergence; for Plant response rating, Ragweed: 125 g ai/ha, visual injury after approximately 10 d, 0 to 100 scale where 0 is no effect and 100 is complete control; for Ragweed plant response rating (0 to 100 scale, 0 is no effect, 100 is complete control): 500 g ai/ha, visual injury approx. 10 d
Excerpt: as §1, §2

[16] = 125 g ai/ha, postemergence, visual rating after approx. 10 d, 0 to 100 scale (0 no effect, 100 complete control)
[17] = Postemergence, 500 g ai/ha, 0 to 100 scale where 0 is no effect and 100 is complete control
[18] = 125 g ai/ha, postemergence, visual injury rating on 0 to 100 scale (0 no effect, 100 complete control), approx. 10 d

SMILES | Plant response rating, Corn (corn (Zea mays); [16]) | Plant response rating, Corn (corn (Zea mays); [17]) | Plant response rating, Pigweed [1, 16] | Plant response rating, Pigweed [1, 17] | Plant response rating, Ryegrass, Italian [2, 16] | Plant response rating, Ryegrass, Italian [2, 17] | Plant response rating, Blackgrass [3, 17] | Plant response rating, Kochia (Kochia (Kochia scoparia) [4]; [16]) | Plant response rating, Kochia (Kochia (Kochia scoparia) [4]; [17]) | Plant response rating, Barnyardgrass [5, 17] | Plant response rating, Foxtail, Giant [6, 16] | Plant response rating, Foxtail, Giant [6, 17] | Plant response rating, Ragweed [7, 16] | Plant response rating, Ragweed [7, 17] | Plant response rating, Wheat [8, 16] | Plant response rating, Wheat [8, 17] | Plant response rating, Galium [9, 16] | Plant response rating, Galium [9, 17] | Plant response rating, Pigweed [10] | Pigweed plant response rating (0 to 100 scale, 0 is no effect, 100 is complete control) [10] | also measured
O=C1NCC(c2cccc(C(F)(F)F)c2)C1C(=O)Nc1ccccc1O (centres unmarked) [Compound 557] | 0 | 0 | 0 | 0 | 0 | 0 | 0 | 0 | 0 | 0 | 0 | 0 | 0 | 0 | 0 | 0 | 0 | 0 | 0 | 0 | Plant response rating, Blackgrass [3, 16]: 0; Plant response rating, Barnyardgrass [5, 16]: 0; Plant response rating, Ryegrass, Italian [11]: 0; Ryegrass, Italian plant response rating (0 to 100 scale, 0 is no effect, 100 is complete control) [11]: 0; Plant response rating, Kochia (Kochia (Kochia scoparia) [12]): 0; Kochia plant response rating (0 to 100 scale, 0 is no effect, 100 is complete control) (Kochia (Kochia scoparia) [12]): 0; Plant response rating, Barnyardgrass [13]: 0; Barnyardgrass plant response rating (0 to 100 scale, 0 is no effect, 100 is complete control) [13]: 0; Plant response rating, Foxtail, Giant [14]: 0; Foxtail, Giant plant response rating (0 to 100 scale, 0 is no effect, 100 is complete control) [14]: 0; Plant response rating, Ragweed [15]: 0; Ragweed plant response rating (0 to 100 scale, 0 is no effect, 100 is complete control) [15]: 0
CN1CC(c2cccc(C(F)(F)F)c2)C(C(=O)Nc2cccc(Cl)c2F)C1=O (centres unmarked) [Compound 574] | 60 | 80 | 20 | 40 | 50 | 70 | 70 | 30 | 60 | 90 | 80 | 80 | 0 | 0 | 40 | 70 | 40 | 50 | 20 | 50 | Plant response rating, Blackgrass [3, 16]: 60; Plant response rating, Barnyardgrass [5, 16]: 90; Plant response rating, Ryegrass, Italian [11]: 40; Ryegrass, Italian plant response rating (0 to 100 scale, 0 is no effect, 100 is complete control) [11]: 80; Plant response rating, Kochia (Kochia (Kochia scoparia) [12]): 40; Kochia plant response rating (0 to 100 scale, 0 is no effect, 100 is complete control) (Kochia (Kochia scoparia) [12]): 70; Plant response rating, Barnyardgrass [13]: 90; Barnyardgrass plant response rating (0 to 100 scale, 0 is no effect, 100 is complete control) [13]: 90; Plant response rating, Foxtail, Giant [14]: 90; Foxtail, Giant plant response rating (0 to 100 scale, 0 is no effect, 100 is complete control) [14]: 90; Plant response rating, Ragweed [15]: 0; Ragweed plant response rating (0 to 100 scale, 0 is no effect, 100 is complete control) [15]: 0
O=C(Nc1ccccc1F)C1C(=O)N(CC=CBr)CC1c1cccc(C(F)(F)F)c1 (centres unmarked) [Compound 526] | 0 | 0 | 0 | 0 | 0 | 0 | 0 | 0 | 0 | 20 | 20 | 40 | 0 | 0 | 0 | 0 | 0 | 0 | 0 | 0 | Blackgrass plant response rating [3, 18]: 0; Barnyardgrass plant response rating [5, 18]: 10; Plant response rating, Ryegrass, Italian [11]: 0; Ryegrass, Italian plant response rating (0 to 100 scale, 0 is no effect, 100 is complete control) [11]: 0; Plant response rating, Kochia (Kochia (Kochia scoparia) [12]): 0; Kochia plant response rating (0 to 100 scale, 0 is no effect, 100 is complete control) (Kochia (Kochia scoparia) [12]): 0; Plant response rating, Barnyardgrass [13]: 0; Barnyardgrass plant response rating (0 to 100 scale, 0 is no effect, 100 is complete control) [13]: 20; Plant response rating, Foxtail, Giant [14]: 70; Foxtail, Giant plant response rating (0 to 100 scale, 0 is no effect, 100 is complete control) [14]: 80; Plant response rating, Ragweed [15]: 0; Ragweed plant response rating (0 to 100 scale, 0 is no effect, 100 is complete control) [15]: 0
CCc1cccc(C2CN(C)C(=O)C2C(=O)Nc2ccccc2F)c1 (centres unmarked) [Compound 567] | 70 | 90 | 20 | 20 | 70 | 70 | 80 | 20 | 50 | 100 | 90 | 90 | 0 | 0 | 30 | 60 | 40 | 50 | 20 | 40 | Plant response rating, Blackgrass [3, 16]: 60; Plant response rating, Barnyardgrass [5, 16]: 90; Plant response rating, Ryegrass, Italian [11]: 60; Ryegrass, Italian plant response rating (0 to 100 scale, 0 is no effect, 100 is complete control) [11]: 80; Plant response rating, Kochia (Kochia (Kochia scoparia) [12]): 60; Kochia plant response rating (0 to 100 scale, 0 is no effect, 100 is complete control) (Kochia (Kochia scoparia) [12]): 80; Plant response rating, Barnyardgrass [13]: 100; Barnyardgrass plant response rating (0 to 100 scale, 0 is no effect, 100 is complete control) [13]: 100; Plant response rating, Foxtail, Giant [14]: 100; Foxtail, Giant plant response rating (0 to 100 scale, 0 is no effect, 100 is complete control) [14]: 100; Plant response rating, Ragweed [15]: 50; Ragweed plant response rating (0 to 100 scale, 0 is no effect, 100 is complete control) [15]: 60
